The text below walks through data of PubChem BioAssay (NCI).

Some test systems named below: COLO 205 colon; MDA-MB-435; HCT-116 colon; SN12C renal; PC-3 prostate; SF-539 CNS; MOLT-4 leukemia; OVCAR-4 ovarian; NCI-H226 lung; A498 renal.
What all share (assay): NCI-60 cell line screen, 48 h

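48-hour exposure; five concentrations; linearly interpolated endpoints. TGI denotes the concentration required for complete inhibition of growth.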 A value given as a limit tells only on which side of the number the result lay.

Consider `O=C(CSc1nc2ccc(I)cc2c(=O)n1Cc1ccccc1)Nc1ccccc1`, for which the TGI is > 100 µM in the test with COLO 205 colon; > 100 µM with MDA-MB-435; > 100 µM with HCT-116 colon; > 100 µM in the test with SN12C renal; 31.9 µM in the test with PC-3 prostate; 10.6 µM in the test with SF-539 CNS. Also, the TGI with MOLT-4 leukemia was > 100 µM; in the test with OVCAR-4 ovarian, > 100 µM; in the test with NCI-H226 lung, 44.5 µM; with A498 renal, 46.4 µM.

Turning to `CCOc1ccccc1N=NC1C(=O)N(C(=O)CC(=O)Nc2ccccc2C)N=C1C` (stereo not given), the TGI in the test on COLO 205 colon, in the test on MDA-MB-435, with HCT-116 colon, with SN12C renal, in the test on PC-3 prostate and with SF-539 CNS was > 100 µM throughout. For the same compound, the TGI in the test on MOLT-4 leukemia, in the test on OVCAR-4 ovarian, with NCI-H226 lung and in the test with A498 renal was > 100 µM each time.

As for `CC1(C)CC(=O)c2c(N)n[nH]c2C1`, the TGI in the test with COLO 205 colon, with MDA-MB-435, in the test on HCT-116 colon, in the test on SN12C renal, with PC-3 prostate and in the test on SF-539 CNS was > 100 µM throughout. The TGI in the test on MOLT-4 leukemia, in the test with OVCAR-4 ovarian, in the test with NCI-H226 lung and with A498 renal was > 100 µM in each case.

Take `CSc1nnnc2ccccc12`: the TGI in the test with COLO 205 colon, in the test on MDA-MB-435, in the test on HCT-116 colon, with SN12C renal, in the test on PC-3 prostate and in the test on SF-539 CNS was > 100 µM each time. Besides, the TGI with MOLT-4 leukemia, in the test with OVCAR-4 ovarian, with NCI-H226 lung and with A498 renal was > 100 µM throughout.

Turning to `Cc1cn(C2CC(O)C(Cn3nncc3Cn3nc(Br)c(=O)[nH]c3=O)O2)c(=O)[nH]c1=O` (stereo not given), the TGI in the test on COLO 205 colon, in the test on MDA-MB-435, in the test with HCT-116 colon, with SN12C renal, in the test on PC-3 prostate and in the test with SF-539 CNS was > 100 µM throughout. Moreover, the TGI in the test with MOLT-4 leukemia, with OVCAR-4 ovarian, with NCI-H226 lung and in the test on A498 renal was > 100 µM each time.

For the compound `CCCCCCCCCCCC(=O)N(CCCCCCCCC)CC(O)C(O)C(OC1OC(CO)C(O)C(O)C1O)C(O)CO` (stereo not given), the TGI in the test with COLO 205 colon came out at 36.9 µM; with MDA-MB-435, 32 µM; in the test on HCT-116 colon, 32.8 µM; in the test with SN12C renal, 36.1 µM; in the test on PC-3 prostate, 39.2 µM; with SF-539 CNS it was 50.8 µM. The TGI with MOLT-4 leukemia was determined as 40.3 µM; in the test on OVCAR-4 ovarian, 49.6 µM; in the test on NCI-H226 lung, 37.8 µM; in the test on A498 renal, 39.5 µM.

In the case of `COc1ccc(NC(=O)CSC(=O)c2ccccc2)c(SCCSSCCSc2cc(OC)ccc2NC(=O)CSC(=O)c2ccccc2)c1`, the TGI is 24.2 µM in the test on COLO 205 colon; > 100 µM with MDA-MB-435; > 100 µM with HCT-116 colon; > 100 µM in the test on SN12C renal; > 100 µM with PC-3 prostate; > 100 µM in the test on SF-539 CNS. The TGI with MOLT-4 leukemia was > 100 µM; in the test on OVCAR-4 ovarian, 83.7 µM; with NCI-H226 lung, > 100 µM; with A498 renal it was > 100 µM.

Regarding `CCOC(=O)c1ccc2nc3n(c2c1)C(c1c(F)cccc1F)SC3` (stereo not given), the TGI with COLO 205 colon, with MDA-MB-435, with HCT-116 colon, in the test with SN12C renal, in the test with PC-3 prostate and with SF-539 CNS was > 100 µM in each case. Moreover, the TGI in the test with MOLT-4 leukemia was > 100 µM; in the test with OVCAR-4 ovarian, > 100 µM; in the test on NCI-H226 lung, 87 µM; in the test on A498 renal, > 100 µM.

Consider `C[Si](C)(C)OC1(C#N)c2ccccc2CCCC12CCCC2` (stereo not given), for which the TGI in the test on COLO 205 colon, with MDA-MB-435, with HCT-116 colon, with SN12C renal, in the test on PC-3 prostate and in the test with SF-539 CNS was > 100 µM each time. For the same compound, the TGI is 61.7 µM with MOLT-4 leukemia, > 100 µM in the test with OVCAR-4 ovarian, > 100 µM in the test with NCI-H226 lung and > 100 µM with A498 renal.

As to `CC1CN(c2cc3c(cc2F)c(=O)c(C(=O)O)cn3-c2ccc(N3CCN(C)CC3)cn2)CC(C)N1` (stereo not given), the TGI in the test on COLO 205 colon, with MDA-MB-435, in the test on HCT-116 colon, in the test with SN12C renal, in the test with PC-3 prostate and in the test with SF-539 CNS was > 100 µM in each case. Also, the TGI with MOLT-4 leukemia, in the test with OVCAR-4 ovarian, in the test on NCI-H226 lung and in the test with A498 renal was > 100 µM each time.

Consider `COP(=O)(CP(=O)(OC)OCCC(C)CCC=C(C)C)OC` (stereo not given), for which the TGI in the test with COLO 205 colon, with MDA-MB-435, in the test with HCT-116 colon, in the test with SN12C renal, in the test with PC-3 prostate and with SF-539 CNS was > 100 µM each time. The TGI with MOLT-4 leukemia, in the test on OVCAR-4 ovarian, in the test on NCI-H226 lung and in the test on A498 renal was > 100 µM throughout.
